Assay results reported in patent publication US20090117199A1, “Method of treatment of cancer” (priority 1998, published 2009).
Entries after “also recorded” stand apart in the source; their conditions may differ.

Columns and labels:
MCF-7 [ER+] tumors = experiment: Tumor response to IL 10% RB in saline, report 020110.01B; format: in vivo, BALB/c Nude Mice; conditions: 10% RB IL 25-50 μL/tumor Qd × 1; within 21 days; 4/group
[1] = Biodistribution (pharmacokinetic and toxicokinetic) after single IL injection in A375 tumor; format: in vivo, nu/nu mice; conditions: single IL injection of 1% or 6% RB
Description: Growth control and sham treatment groups received no injection. All dosing was performed on Study Day 1.
Pharmacokinetic and toxicokinetic data from RB-treated tumors illustrates that a single IL injection of RB leads to localized retention of drug tumor tissue. This is illustrated in FIGS. 4 and 5, which show concentration of RB in tumor tissue, peritumor tissue and blood for time points ranging from 0.5 hr to 360 hr (15 days) post injection.

Murine Hepa I-6 tumors = experiment: Tumor response to IL 10% RB in saline, report 020111.01B; format: in vivo, BALB/c Nude Mice; conditions: IL 30-50 μL/tumor Qd × 1; 8/group
T-47D [ER−] tumors = experiment: Tumor response to IL 10% RB in saline, report 020110.01B; format: in vivo, BALB/c Nude Mice; conditions: 10% RB IL 25-50 μL/tumor Qd × 1; long passage T-47D [ER−]; 4/group
[2] = Partitioning coefficient of RB, 1-octanol/0.9% saline, effect of pH
Description: The partition coefficient of RB was assessed over a range of pH values. The experiments were conducted by titrating RB solutions, measuring pH, then placing aliquots of the solutions into vials containing both organic (1-octanol) and aqueous (0.9% saline) phases. After mixing, the agents were allowed to partition for approximately 1 day. Based on absorption measurements (at the same wavelengths used in Experiment 1), the percentage of agent in each phase, the Kp and LogD (log of Kp) was reported.
Experiment 1 was conducted using a stock solution of 0.42 mg/mL RB, whereas Experiment 3 was conducted using a concentration of 0.08 mg/mL.

[3] = system: melanoma lesions (stage III or IV metastatic melanoma); experiment: Human trial, single IL injection of 10% RB solution in unbuffered saline
[4] = system: H69Ar human resistant SCLC tumors; experiment: Tumor response to IL 10% RB in saline, report 051017.01B; format: in vivo, Nu/nu Nude Mice; conditions: 10% RB 45 μL/tumor Qd × 1; 24 hours post injection and over 7 days of observation
[5] = Kp of RB with and without phosphate buffer; format: physicochemical
Source text: This may be compared to 66.7 in the absence of phosphate buffer, in which case the pH would have been between about 6 to about 6.5.

[6] = cited from earlier work
[7] = cited from earlier work; remark: listed apart in the source
[8] = Local tolerance, single subcutaneous injection into normal tissue
Description: The local tolerance study was conducted using female Crl:SKH-1-hrBR hairless mice (Charles river), at least 6 weeks of age and 19-27 g at study Day 1.
All dosing was performed on Study Day 1. Follow-up examination of mice was conducted at regular intervals and the test terminated on either day 4 (3 animal from each group) or Day 15 (the remaining three animals).
Clinical observations were recorded daily (including dermal scoring using the Draize scoring system). Upon sacrifice, animals were subjected to a comprehensive necroscopy. Tissue samples from the injection site (and surrounding tissue) were obtained and examined histologically.

MCF-7 [ER−] tumors = experiment: Tumor response to IL 10% RB in saline, report 020110.01B; format: in vivo, BALB/c Nude Mice; conditions: 10% RB IL 25-50 μL/tumor Qd × 1; within 21 days; 4/group
[9] = Critical solubility of Rose Bengal in saline (cloudiness, absorbance at 1000 nm); format: physicochemical
Description: Solutions of RB at different concentrations were prepared at different sodium chloride concentrations. Saline 0.9% USP sodium chloride solution from Hospira, having a pH of 5.5, was used as a stock solution. Solutions having different sodium chloride concentrations were obtained by the addition of calculated amounts of sodium chloride.
The prepared RB/sodium chloride solutions were shaken for 1 hour and absorbance measurements were taken at 1000 nm to determine cloudiness. 1000 nm was chosen as this is in the near infra red where RB has negligible absorbance. Solution cloudiness was difficult to detect visually due to the very dark red color.
The following solutions were evaluated: • 1. 20% RB in saline concentrations of 1.0%, 1.5%, 1.6%, 1.7%, 1.8%, 1.9%, 2.0%, 2.5%, 2.6%, 2.7% and 2.9%; • 2. 15% RB in saline concentrations of […]; • 3. 10% RB in saline concentrations of 2.0%, 2.5%, 3.0% and 3.2%; and • 4. 40%, 45%, 50%, 55% and 60% solutions of RB in 0.9% saline.

Murine Hepa 1-6 tumors = experiment: Tumor response to IL 10% RB in saline, report 051016.02B; format: in vivo, BALB/c Nude Mice; conditions: 10% RB 45 μL/tumor Qd × 1
[10] = system: PC-3 human prostate tumors; experiment: Tumor response to IL 10% RB in saline, report 051017.02B; format: in vivo, Nu/nu Nude Mice; conditions: 10% RB 45 μL/tumor Qd × 1; 24 hours post injection and over 29 days of observation
[11] = 25 evaluable target lesions at final follow up
[12] = analysed per patient, 11 patients
[13] = larger lesions receiving 0.2 mL or greater doses of RB

O=C([O-])c1c(Cl)c(Cl)c(Cl)c(Cl)c1-c1c2cc(I)c(=O)c(I)c-2oc2c(I)c([O-])c(I)cc12.[Na+].[Na+] [RB, 4,5,6,7-Tetrachloro-2′,4′,5′,7′-tetraiodofluorescein]
tumors completely ablated (MCF-7 [ER+] tumors): [ER+] (4/4), MCF-7 [ER−] (4/4),
persistence of markedly elevated RB levels in tumor samples ([1]; post-injection): at least 8 days
mean levels of RB in blood ([1]; 0.5 hr to 360 hr post injection): ≤ 3 µg/g
damage/necrosis to peripheral normal tissue (Murine Hepa I-6 tumors): peripheral normal tissue (0/8)
tumors ablated (T-47D [ER−] tumors): (3/4).
solubility [2]: 195 µg/mL
partitioning coefficient versus pH ([2]; below a pH of about 4.4): rapidly increases
solubility of RB in the aqueous phase ([2]; below a pH of about 4.4 (lactone form)): almost complete insolubility
partitioning coefficient versus pH ([2]; pH range about 4 to about 10, 1-octanol/0.9% saline): consistent
objective response rate (ORR), target lesions [3, 11]: 48%
target lesions with complete response (CR), RECIST [3, 11]: 36%
target lesions with partial response (PR) [3, 11]: 12%
target lesions with progressive disease [3, 11]: 24%
target lesions with stable disease [3, 11]: 28%
CR, non-target lesions individually ([3]; 26 evaluable nontarget lesions): 15%
ORR, non-target lesions individually ([3]; 26 evaluable nontarget lesions): 27%
PD, non-target lesions individually ([3]; 26 evaluable nontarget lesions): 52%
PR, non-target lesions individually ([3]; 26 evaluable nontarget lesions): 12%
CR, overall response per patient [3, 12]: 27%
ORR, overall response per patient [3, 12]: 55%
PR, overall response per patient [3, 12]: 27%
progressive disease (PD), overall response per patient [3, 12]: 18%
stable disease (SD), overall response per patient [3, 12]: 27%
CR [3, 13]: 62%
PR [3, 13]: 8%
successful chemoablation (CR + PR) [3, 13]: ~70%
ORR of nontarget lesions ([3]; patients with a negative lesion response): 0%
ORR of nontarget lesions ([3]; patients with a positive objective response of target lesions): 44%
CR, non-target lesions per patient ([3]; per patient basis): 9%
ORR, non-target lesions per patient ([3]; per patient basis): 27%
PD, non-target lesions per patient ([3]; per patient basis): 27%
PR, non-target lesions per patient ([3]; per patient basis): 18%
Subsequent status ([3]; per patient, some had subsequent other treatment): Alive at 34; also recorded: Dead at 12; also recorded: Dead at 9; also recorded: Alive at 31; also recorded: Alive at 27; also recorded: Dead at 8; also recorded: Alive at 28; also recorded: Alive at 29; also recorded: Alive at 30
adverse effects ([3]; single IL treatment): generally mild and transient
tumors fully ablated [4]: IL RB fully ablated 5/5 tumors 24
Kp ([5]; phosphate buffered saline, pH 7.4): 11.5
Kp ([5]; solution without phosphate buffer (unbuffered), absence of phosphate buffer, pH between about 6 to about 6.5): 66.7
half-life of RB in the murine blood stream [6]: approximately 30 min
excretion ([7]; bile): rapidly excreted from the bile in unmetabolized form
removal from the blood ([7]; blood): almost exclusively removed from the blood by the liver
fatalities ([8]; SC, 2000 mg/kg study group (days 2 and 3), N=6): two fatalities
swelling at the injection site ([8]; SC, 250 and 500 mg/kg): Swelling was also noted in the injection site for most animals
injection site effect ([8]; SC, 1250-2000 mg/kg): massive necrosis at the injection site
histology of injection site ([8]; SC, <500 mg RB kg body weight, days 4 and 15): focal necrosis at the injection site
histological necrosis in normal tissue ([8]; SC, dosages up to 250 mg/kg at 1 days post administration): no histological evidence of necrosis
clinical outcome, local tolerance ([8]; SC, up to 500 mg RB/kg body weight (10%)): mild side effects primarily limited to localized discoloration of the injection site; also recorded: only mild clinical effects
systemic effects ([8]; lower dosage groups (below 2000 mg/kg)): No systemic effects
kidney lesions ([8]; one of the two fatalities in Group 6 (2000 mg/kg)): mild degeneration of the kidney
liver lesions ([8]; the two fatalities in Group 6 (2000 mg/kg)): mild to moderate degeneration of the liver
tumors completely ablated (MCF-7 [ER−] tumors): [ER+] (4/4), MCF-7 [ER−] (4/4),
solution stability ([9]; RB solutions within the therapeutic amounts): stable
RB concentration that can be achieved ([9]; in 0.9% saline): up to 45%
tumors fully ablated (Murine Hepa 1-6 tumors; 3 days post injection, 10/group): IL RB fully ablated 8/10 tumors 3
partial responses (number of tumors) (Murine Hepa 1-6 tumors; large tumors): responses were seen in 2 large
tumors fully ablated [10]: IL RB fully ablated 8/8 tumors 24
